Where a SMILES comes first, the peptide text is derived from it.
Experiments:
[1] = target: T1, Dickkopf WNT-signaling pathway inhibitor 1 (Rattus norvegicus, UniProt A6I0Z0); assay: Inhibition of biotin-labeled rat recombinant DKK1 assessed as reduction in DKK1 interaction with LRP-6/Fc incubated overnight by chemiluminescence based Alpha-screen assay
T1 sequence (A6I0Z0 whole entry): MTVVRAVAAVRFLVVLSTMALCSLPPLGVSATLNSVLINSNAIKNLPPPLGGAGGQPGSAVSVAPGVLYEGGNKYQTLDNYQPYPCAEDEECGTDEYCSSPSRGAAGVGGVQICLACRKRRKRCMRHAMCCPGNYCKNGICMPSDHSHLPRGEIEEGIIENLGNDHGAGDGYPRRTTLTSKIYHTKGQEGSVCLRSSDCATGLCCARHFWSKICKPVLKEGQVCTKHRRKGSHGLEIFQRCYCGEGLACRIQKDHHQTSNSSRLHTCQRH

[2] = target: T2, Dickkopf-related protein 1 (Homo sapiens, UniProt O94907); assay: Inhibition of biotin-labeled human recombinant DKK1 assessed as reduction in DKK1 interaction with LRP-6/Fc incubated overnight by chemiluminescence based Alpha-screen assay
T2 sequence (O94907 whole entry): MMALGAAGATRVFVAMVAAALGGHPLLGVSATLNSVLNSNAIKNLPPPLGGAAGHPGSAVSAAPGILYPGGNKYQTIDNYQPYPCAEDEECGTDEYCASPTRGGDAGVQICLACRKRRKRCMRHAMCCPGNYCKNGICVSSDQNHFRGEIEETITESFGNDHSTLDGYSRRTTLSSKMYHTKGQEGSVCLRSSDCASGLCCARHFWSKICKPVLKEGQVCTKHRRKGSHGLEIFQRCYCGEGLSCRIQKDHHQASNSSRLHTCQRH

Work on `CSCC[C@H](NC(=O)[C@H](Cc1ccccc1)NC(=O)[C@H](CCC(=O)O)NC(=O)[C@H](CC(N)=O)NC(=O)[C@H](CCCNC(=N)N)NC(=O)[C@@H]1CCCN1C(=O)[C@@H](N)CS)C(=O)N[C@@H](CS)C(=O)N[C@@H](C)C(=O)N[C@@H](CC(=O)O)C(=O)N[C@@H](CCCCN)C(=O)N[C@@H](CCSC)C(=O)N[C@@H](CS)C(=O)N[C@@H](Cc1ccccc1)C(=O)N1CCC[C@H]1C(=O)N[C@H](C(=O)N[C@@H](CO)C(=O)N[C@@H](Cc1ccccc1)C(=O)N[C@@H](CC(C)C)C(=O)N[C@@H](CS)C(=O)N[C@@H](CC(=O)O)C(=O)NCC(=O)N[C@@H](CCC(=O)O)C(=O)N[C@@H](CC(N)=O)C(=O)N[C@@H](CC(=O)O)C(=O)N[C@@H](CS)C(=O)N[C@@H](CCC(=O)O)C(=O)N[C@@H](CC(=O)O)C(=O)NCC(=O)N[C@@H](CO)C(=O)N[C@@H](CC(=O)O)C(=O)N[C@@H](CCC(=O)O)C(=O)N[C@@H](CC(=O)O)C(=O)N[C@@H](Cc1ccc(O)cc1)C(=O)N[C@@H](CS)C(=O)N1CCC[C@H]1C(=O)N[C@@H](CO)C(=O)N[C@@H](CCCNC(=N)N)C(=O)N[C@H](C(=O)O)[C@@H](C)O)C(C)C` (H-CPRNEFMCADKMCFPVSFLCDGENDCEDGSDEDYCPSRT-OH) yielded an IC50 [1] of at most 1 nM and an IC50 [2] of at most 1 nM.

For `CSCC[C@H](NC(=O)[C@H](CS)NC(=O)[C@H](CCC(N)=O)NC(=O)[C@H](Cc1ccccc1)NC(=O)[C@H](Cc1ccc(O)cc1)NC(=O)[C@H](CO)NC(=O)[C@H](C)NC(=O)[C@@H]1CCCN1C(=O)[C@@H](N)CS)C(=O)N[C@@H](CC(N)=O)C(=O)N[C@@H](Cc1cnc[nH]1)C(=O)N[C@@H](CC(N)=O)C(=O)N[C@@H](Cc1cnc[nH]1)C(=O)N[C@@H](CS)C(=O)N[C@@H](Cc1ccc(O)cc1)C(=O)N1CCC[C@H]1C(=O)N[C@@H](CCSC)C(=O)N[C@@H](CCC(=O)O)C(=O)N[C@@H](Cc1c[nH]c2ccccc12)C(=O)N[C@@H](CCCNC(=N)N)C(=O)N[C@@H](CS)C(=O)N[C@@H](CC(=O)O)C(=O)NCC(=O)N[C@@H](Cc1ccccc1)C(=O)N1CCC[C@H]1C(=O)N[C@@H](CC(=O)O)C(=O)N[C@@H](CS)C(=O)N[C@@H](CCC(=O)O)C(=O)N[C@@H](CC(=O)O)C(=O)NCC(=O)N[C@@H](CO)C(=O)N[C@@H](CC(=O)O)C(=O)N[C@@H](CCC(=O)O)C(=O)N[C@@H](CCCCN)C(=O)NCC(=O)N[C@@H](CS)C(=O)N1CCC[C@H]1C(=O)N[C@@H](Cc1ccc(O)cc1)C(=O)N[C@@H](CCCNC(=N)N)C(=O)N[C@H](C(=O)O)[C@@H](C)O` (H-CPASYFQCMNHNHCYPMEWRCDGFPDCEDGSDEKGCPYRT-OH), the IC50 [1] was at most 1 nM and the IC50 [2] was at most 1 nM.

Work on `CSCC[C@H](NC(=O)[C@H](Cc1ccccc1)NC(=O)[C@H](CCC(=O)O)NC(=O)[C@H](Cc1ccc(O)cc1)NC(=O)[C@H](CO)NC(=O)[C@@H]1CCCN1C(=O)[C@@H](N)CS)C(=O)N[C@@H](CS)C(=O)N[C@@H](C)C(=O)N[C@@H](CC(=O)O)C(=O)N[C@@H](CCCCN)C(=O)N[C@@H](CCSC)C(=O)N[C@@H](CS)C(=O)N[C@@H](Cc1ccccc1)C(=O)N1CCC[C@H]1C(=O)N[C@@H](CC(C)C)C(=O)N[C@@H](CC(=O)O)C(=O)N[C@@H](Cc1ccccc1)C(=O)N[C@@H](CC(C)C)C(=O)N[C@@H](CS)C(=O)N[C@@H](CC(=O)O)C(=O)NCC(=O)N[C@@H](CCC(=O)O)C(=O)N[C@@H](CC(N)=O)C(=O)N[C@@H](CC(=O)O)C(=O)N[C@@H](CS)C(=O)N[C@@H](CCC(=O)O)C(=O)N[C@@H](CC(=O)O)C(=O)NCC(=O)N[C@@H](CO)C(=O)N[C@@H](CC(=O)O)C(=O)N[C@@H](CCC(=O)O)C(=O)N[C@@H](CC(=O)O)C(=O)N[C@@H](Cc1ccc(O)cc1)C(=O)N[C@@H](CS)C(=O)N1CCC[C@H]1C(=O)N[C@@H](CO)C(=O)N[C@@H](CCCNC(=N)N)C(=O)N[C@H](C(=O)O)[C@@H](C)O` (H-CPSYEFMCADKMCFPLDFLCDGENDCEDGSDEDYCPSRT-OH) yielded an IC50 [1] of at most 1 nM and an IC50 [2] of at most 1 nM.

`CSCC[C@H](NC(=O)[C@@H]1CCCN1C(=O)[C@H](Cc1ccc(O)cc1)NC(=O)[C@H](CS)NC(=O)[C@H](Cc1cnc[nH]1)NC(=O)[C@H](CC(N)=O)NC(=O)[C@H](Cc1cnc[nH]1)NC(=O)[C@H](CC(N)=O)NC(=O)[C@H](CCCNC(=N)N)NC(=O)[C@H](CS)NC(=O)[C@H](CCCNC(=N)N)NC(=O)[C@H](Cc1ccccc1)NC(=O)[C@H](Cc1ccc(O)cc1)NC(=O)[C@H](CO)NC(=O)[C@H](C)NC(=O)[C@@H]1CCCN1C(=O)[C@@H](N)CS)C(=O)N[C@@H](CCC(=O)O)C(=O)N[C@@H](Cc1c[nH]c2ccccc12)C(=O)N[C@@H](CCCNC(=N)N)C(=O)N[C@@H](CS)C(=O)N[C@@H](CC(=O)O)C(=O)NCC(=O)N[C@@H](Cc1ccccc1)C(=O)N[C@@H](CC(=O)O)C(=O)N[C@@H](CC(=O)O)C(=O)N[C@@H](CS)C(=O)N[C@@H](CCC(=O)O)C(=O)N[C@@H](CC(=O)O)C(=O)NCC(=O)N[C@@H](CO)C(=O)N[C@@H](CC(=O)O)C(=O)N[C@@H](CCC(=O)O)C(=O)N[C@@H](CCC(N)=O)C(=O)NCC(=O)N[C@@H](CS)C(=O)N1CCC[C@H]1C(=O)N[C@@H](Cc1ccc(O)cc1)C(=O)N[C@@H](CCCNC(=N)N)C(=O)N[C@H](C(=O)O)[C@@H](C)O` (H-CPASYFRCRNHNHCYPMEWRCDGFDDCEDGSDEQGCPYRT-OH) was tested, and the IC50 [1] was at most 1 nM and the IC50 [2] was at most 1 nM.

For `CC[C@H](C)[C@H](NC(=O)[C@H](CC(=O)O)NC(=O)CNC(=O)[C@H](CC(=O)O)NC(=O)[C@H](CS)NC(=O)[C@H](CC(C)C)NC(=O)[C@H](Cc1ccccc1)NC(=O)[C@H](CO)NC(=O)[C@H](Cc1ccccc1)NC(=O)[C@@H]1CCCN1C(=O)[C@H](Cc1ccccc1)NC(=O)[C@H](CS)NC(=O)[C@@H](NC(=O)[C@H](CCCCN)NC(=O)[C@H](CC(=O)O)NC(=O)[C@H](C)NC(=O)[C@H](CS)NC(=O)[C@H](CCSC)NC(=O)[C@H](Cc1ccccc1)NC(=O)[C@H](CCC(=O)O)NC(=O)[C@H](CC(N)=O)NC(=O)[C@H](CCC(N)=O)NC(=O)[C@@H]1CCCN1C(=O)[C@@H](N)CS)[C@@H](C)O)C(=O)N[C@@H](CC(=O)O)C(=O)N[C@@H](CS)C(=O)N[C@@H](Cc1ccc(O)cc1)C(=O)N[C@@H](CC(=O)O)C(=O)NCC(=O)N[C@@H](CO)C(=O)N[C@@H](CC(=O)O)C(=O)N[C@@H](CCC(=O)O)C(=O)N[C@@H](C)C(=O)N[C@@H](Cc1ccc(O)cc1)C(=O)N[C@@H](CS)C(=O)N1CCC[C@H]1C(=O)N[C@@H](CO)C(=O)N[C@@H](CCCNC(=N)N)C(=O)N[C@H](C(=O)O)[C@@H](C)O` (H-CPQNEFMCADKTCFPFSFLCDGDIDCYDGSDEAYCPSRT-OH), the IC50 [1] was at most 1 nM and the IC50 [2] was at most 1 nM.

Work on `CSCC[C@H](NC(=O)[C@H](CCCCN)NC(=O)[C@H](CC(=O)O)NC(=O)[C@@H]1CCCN1C(=O)[C@H](CS)NC(=O)[C@H](CCSC)NC(=O)[C@H](Cc1ccccc1)NC(=O)[C@H](CCC(=O)O)NC(=O)[C@H](CC(N)=O)NC(=O)[C@H](CO)NC(=O)[C@@H]1CCCN1C(=O)[C@@H](N)CS)C(=O)N[C@@H](CS)C(=O)N[C@@H](Cc1ccccc1)C(=O)N1CCC[C@H]1C(=O)N[C@@H](CC(C)C)C(=O)N[C@@H](CO)C(=O)N[C@@H](Cc1ccccc1)C(=O)N[C@@H](CCCNC(=N)N)C(=O)N[C@@H](CS)C(=O)N[C@@H](CC(=O)O)C(=O)NCC(=O)N[C@@H](CCC(=O)O)C(=O)N[C@@H](CC(N)=O)C(=O)N[C@@H](CC(=O)O)C(=O)N[C@@H](CS)C(=O)N[C@@H](CCC(=O)O)C(=O)N[C@@H](CC(=O)O)C(=O)NCC(=O)N[C@@H](CO)C(=O)N[C@@H](CC(=O)O)C(=O)N[C@@H](CCC(=O)O)C(=O)N[C@@H](CC(C)C)C(=O)N[C@@H](Cc1ccc(O)cc1)C(=O)N[C@@H](CS)C(=O)N1CCC[C@H]1C(=O)N[C@@H](CO)C(=O)N[C@@H](CCCNC(=N)N)C(=O)N[C@H](C(=O)O)[C@@H](C)O` (H-CPSNEFMCPDKMCFPLSFRCDGENDCEDGSDELYCPSRT-OH) yielded an IC50 [1] of at most 1 nM and an IC50 [2] of at most 1 nM.

`CSCC[C@H](NC(=O)[C@@H]1CCCN1C(=O)[C@H](Cc1ccc(O)cc1)NC(=O)[C@H](CS)NC(=O)[C@H](Cc1cnc[nH]1)NC(=O)[C@H](CC(N)=O)NC(=O)[C@H](Cc1cnc[nH]1)NC(=O)[C@H](CCCCN)NC(=O)[C@H](CCCNC(=N)N)NC(=O)[C@H](CS)NC(=O)[C@H](CCCCN)NC(=O)[C@H](Cc1ccccc1)NC(=O)[C@H](Cc1ccc(O)cc1)NC(=O)[C@H](CO)NC(=O)[C@H](C)NC(=O)[C@@H]1CCCN1C(=O)[C@@H](N)CS)C(=O)N[C@@H](CCC(=O)O)C(=O)N[C@@H](Cc1c[nH]c2ccccc12)C(=O)N[C@@H](CCCNC(=N)N)C(=O)N[C@@H](CS)C(=O)N[C@@H](CC(=O)O)C(=O)NCC(=O)N[C@@H](Cc1ccccc1)C(=O)N[C@@H](CCC(N)=O)C(=O)N[C@@H](CC(=O)O)C(=O)N[C@@H](CS)C(=O)N[C@@H](CCC(=O)O)C(=O)N[C@@H](CC(=O)O)C(=O)NCC(=O)N[C@@H](CO)C(=O)N[C@@H](CC(=O)O)C(=O)N[C@@H](CCC(=O)O)C(=O)N[C@@H](CCC(N)=O)C(=O)N[C@@H](C)C(=O)N[C@@H](CS)C(=O)N1CCC[C@H]1C(=O)N[C@@H](Cc1ccc(O)cc1)C(=O)N[C@@H](CCCNC(=N)N)C(=O)N[C@H](C(=O)O)[C@@H](C)O` (H-CPASYFKCRKHNHCYPMEWRCDGFQDCEDGSDEQACPYRT-OH) gave an IC50 [1] of at most 1 nM and an IC50 [2] of at most 1 nM.
